Assay results taken from patent US8431593B2, “Heteroaryl amide derivatives” (H. Lundbeck A/S, priority 2006, dated 2013).

biological target: T1, P2X7 receptor (Homo sapiens, UniProt Q99572); experiment: P2X7 calcium mobilization assay, high throughput, antagonist activity (Example 4A); assay type: cell-based; settings: not given
T1 construct: host or cells: SH-SY5Y
T1 sequence (Q99572 1-595): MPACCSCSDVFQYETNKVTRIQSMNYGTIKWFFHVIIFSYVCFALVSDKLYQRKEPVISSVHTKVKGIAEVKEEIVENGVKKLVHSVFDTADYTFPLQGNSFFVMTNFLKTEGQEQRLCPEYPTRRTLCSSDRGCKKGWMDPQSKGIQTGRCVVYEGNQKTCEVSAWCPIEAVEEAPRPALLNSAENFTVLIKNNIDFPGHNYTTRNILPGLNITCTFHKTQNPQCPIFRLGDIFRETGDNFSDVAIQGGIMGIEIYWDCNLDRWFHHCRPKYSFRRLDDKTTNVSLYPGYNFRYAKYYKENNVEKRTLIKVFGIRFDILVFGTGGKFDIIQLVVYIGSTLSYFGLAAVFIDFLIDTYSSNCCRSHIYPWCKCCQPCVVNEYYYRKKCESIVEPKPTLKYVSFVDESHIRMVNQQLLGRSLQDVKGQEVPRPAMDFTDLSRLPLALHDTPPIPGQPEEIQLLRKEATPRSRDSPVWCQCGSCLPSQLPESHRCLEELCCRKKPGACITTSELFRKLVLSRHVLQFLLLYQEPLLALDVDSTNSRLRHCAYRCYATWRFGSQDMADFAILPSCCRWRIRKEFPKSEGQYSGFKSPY
Method in brief: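 Antagonism was measured as calcium mobilization on FLIPR^TETRA after a 1 h room-temperature compound preincubation of dye-loaded cells. Baseline from no-agonist wells was subtracted from each well's maximum RFU.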

SMILES | IC50 [nM]
C[C@H](O)CNC(=O)Cc1cn2c(C(=O)NCC34CC5CC(CC(C5)C3)C4)cccc2n1 [Compound 29, N-(adamantan-1-ylmethyl)-2-(2-{[(2S)-2-hydroxy-propyl]amino}-2-oxoethyl)imi-dazo[1,2-a]pyridine-5-carboxamide] | < 2000
NCCCNCc1cn2c(C(=O)NCC34CC5CC(CC(C5)C3)C4)cccc2n1 [Compound 123, N-(adamantan-1-ylmethyl)-2-{[(3-aminopropyl)amino]methyl}imi-dazo[1,2-a]pyridine-5-carboxamide] | < 2000
O=C(O)c1cnn(Cc2cn3c(C(=O)NCC45CC6CC(CC(C6)C4)C5)cccc3n2)c1 [Compound 203, 1-({5-[(adamantan-1-ylmethyl)carbamoyl]imi-dazo[1,2-a]pyridin-2-yl}methyl)-1H-pyrazole-4-carboxylic acid] | < 2000

same assay, conditions: 50% decrease in the fluorescence response of cells exposed to 80 μM 2′(3′)-O-(4-benzoyl-benzoyl)adenosine 5′-triphosphate; Example 4A; read-out: IC50

SMILES | IC50 [nM]
CCNCc1cn2c(C(=O)NCC34CC5CC(CC(C5)C3)C4)cccc2n1 [Compound 534, N-(adamantan-1-ylmethyl)-2-[(ethylamino)methyl] imidazo[1,2-a]pyridine-5-carboxamide] | < 2000
CN(C)CCN(C(=O)Cc1cn2c(C(=O)NC[C@@H]3CC[C@@H]4C[C@H]3C4(C)C)cccc2n1)C1CCNCC1(C)C (stereo partly drawn) [Compound 574, 2-(2-{[2-(dimethylamino)ethyl] (3,3-dimethylpiperidin-4-yl)amino}-2-oxoethyl)-N-{[(1R,2R,5R)-6,6-dimethylbicyclo [3.1.1]hept-2-yl]methyl}imidazo[1,2-a]pyridine-5-carboxamide] | < 2000
CCOC(=O)CN(CC)C(=O)c1cn2c(C(=O)NC[C@@H]3CC[C@H]4C[C@@H]3C4(C)C)cccc2n1 [Compound 479, ethyl N-{[5-({[(1S,2R,5S)-6,6-dimethylbicyclo[3.1.1]hept-2-yl]methyl}carbamoyl)imidazo[1,2-a]pyridin-2-yl]carbonyl}-N-ethylglycinate] | < 2000

same assay, conditions: 50% decrease in the fluorescence response of cells exposed to 80 μM of 2′(3′)-O-(4-benzoyl-benzoyl)adenosine 5′-triphosphate; Example 4A; read-out: IC50

SMILES | IC50 [nM]
NC[C@H]1CCCN1C(=O)c1cn2c(C(=O)NCC34CC5CC(CC(C5)C3)C4)cccc2n1 [Compound 633, N-(adamantan-1-ylmethyl)-2-{[(2R)-2-(aminomethyl)pyrrolidin-1-yl]carbonyl}imidazo[1,2-a]pyridine-5-carboxamide] | < 2000
CN(C)C1CCCN(C(=O)CCc2cn3c(C(=O)NCC45CC6CC(CC(C6)C4)C5)cccc3n2)C1 (stereo not drawn) [Compound 754, N-(adamantan-1-ylmethyl)-2-{3-[3-(dimethylamino)piperidin-1-yl]-3-oxopropyl} imidazo[1,2-a] pyridine-5-carboxamide] | < 2000
CC(C)CC(CNC(=O)c1cccc2nc(CC(=O)NCC(F)(F)F)cn12)c1ccc(Cl)cc1 (stereo not drawn) [Compound 796, N-[2-(4-chlorophenyl)-4-methylpentyl]-2-{2-oxo-2-[(2,2,2-trifluoroethyl)amino]ethyl} imidazo[1,2-a] pyridine-5-carboxamide] | < 2000
CCN(C(=O)c1cn2c(C(=O)NCC34CC5CC(CC(C5)C3)C4)cccc2n1)C1CCN(C)CC1 [Compound 679, 5-N-(adamantan-1-ylmethyl)-2-N-ethyl-2-N-(1-methylpiperidin-4-yl)imidazo[1,2-a]pyridine-2,5-dicarboxamide] | < 2000
CC(C)N[C@@H]1CCCN(C(=O)c2cn3c(C(=O)NCC45CC6CC(CC(C6)C4)C5)cccc3n2)C1 [Compound 745, N-(adamantan-1-ylmethyl)-2-{[(3R)-3-(isopropylamino)piperidin-1-yl]carbonyl}imidazo[1,2-a]pyridine-5-carboxamide] | < 2000
CN(C)CCNC(=O)C1CCCN(C(=O)c2cn3c(C(=O)NCC45CC6CC(CC(C6)C4)C5)cccc3n2)C1 (stereo not drawn) [Compound 704, N-(adamantan-1-ylmethyl)-2-[(3-{[2-(dimethylamino)ethyl]carbamoyl}piperidin-1-yl)carbonyl]imidazo[1,2-a]pyridine-5-carboxamide] | < 2000
O=C(NCCc1ccncc1)c1cn2c(C(=O)NCC34CC5CC(CC(C5)C3)C4)cccc2n1 [Compound 660, 5-N-(adamantan-1-ylmethyl)-2-N-(2-pyridin-4-ylethyl)imidazo[1,2-a]pyridine-2,5-dicarboxamide] | < 2000
CN1C2CCC1CC(NC(=O)c1cn3c(C(=O)NCC45CC6CC(CC(C6)C4)C5)cccc3n1)C2 (stereo not drawn) [Compound 667, 5-N-(adamantan-1-ylmethyl)-2-N-(8-methyl-8-azabicyclo[3.2.1]oct-3-yl)imidazo[1,2-a]pyridine-2,5-dicarboxamide] | < 2000
O=C(NCC12CC3CC(CC(C3)C1)C2)c1cccc2nc(CC(=O)N3CC[C@@H](NCCO)C3)cn12 [Compound 726, N-(adamantan-1-ylmethyl)-2-(2-{(3R)-3-[(2-hydroxyethyl)amino]pyrrolidin-1-yl}-2-oxoethyl) imidazo[1,2-a]pyridine-5-carboxamide] | < 2000
CC(C)(C)OC(=O)N[C@@H]1CCN(Cc2cn3c(C(=O)NCC(CC4CCCC4)c4ccccc4)cccc3n2)C1 (stereo in doubt) [Compound 784, tert-butyl [1-({5-[(3-cyclopentyl-2-phenylpropyl)carbamoyl]imidazo[1,2-a]pyridin-2-yl}methyl)pyrrolidin-3-yl]carbamate] | < 2000

same assay, conditions: 50% decrease in the fluorescence response of cells exposed to 80 μM of 2′(3′)-O-(4-benzoyl-benzoyl)adenosine 5′-triphosphate; determined as in Example 4A; read-out: IC50

SMILES | IC50 [nM]
O=C(NCC1(c2cccnc2)CCCCC1)c1cccc2nc(Cn3nnc(CCO)n3)cn12 [Compound 921, 2-{[5-(2-hydroxyethyl)-2H-tetrazol-2-yl]methyl}-N-[(1-pyridin-3-ylcyclohexyl)methyl] imidazo[1,2-a] pyridine-5-carboxamide] | < 2000
CCCC(C(=O)OCC)c1cn2c(C(=O)NCC34CC5CC(CC(C5)C3)C4)cccc2n1 (stereo not drawn) [Compound 905, ethyl 2-{5-[(adamantan-1-ylmethyl)carbamoyl]imidazo[1,2-a]pyridin-2-yl}pentanoate] | < 2000
COc1ccc(C2(CNC(=O)c3cccc4nc(CC(=O)N[C@@H]5CCNC5)cn34)CCCCC2)cc1 [Compound 952, N-{[1-(4-methoxyphenyl)cyclohexyl]methyl}-2-{2-oxo-2-[(3R)-pyrrolidin-3-ylamino]ethyl}imidazo[1,2-a]pyridine-5-carboxamide] | < 2000
O=C(Cc1cn2c(C(=O)NC3CCCCC3)cccc2n1)NCC1(c2ccc(Cl)cc2)CCCCC1 [Compound 980, 2-[2-({[1-(4-chlorophenyl)cyclohexyl]methyl}amino)-2-oxoethyl]-N-cyclohexyl-imidazo[1,2-a]pyridine-5-carboxamide] | < 2000

same assay, conditions: P2X7 calcium mobilization, Example 4A; 50% decrease in the fluorescence response of cells exposed to 80 μM of (2′(3′)-O-(4-benzoyl-benzoyl)adenosine 5′-triphosephate); read-out: IC50

SMILES | IC50 [nM]
CC(C)CC(CNC(=O)c1cccc2nccn12)c1ccc(C(F)(F)F)nc1 (stereo not drawn) [Compound 1051, N-{4-methyl-2-[6-(trifluoromethyl)pyridin-3-yl]pentyl} imidazo[1,2-a]pyridine-5-carboxamide] | < 2000

same assay, conditions: SH-SY5Y cells; 50% decrease in fluorescence response to 80 μM BzATP; read-out: IC50

SMILES | IC50 [nM]
CN(C)C(=O)CNC(=O)Cc1cn2c(C(=O)NCC34CC5CC(CC(C5)C3)C4)cccc2n1 [Compound 20, N-(adamantan-1-ylmethyl)-2-(2-{[2-(dimethylamino)-2-oxoethyl]amino}-2-oxoethyl)imidazo[1,2-a]pyridine-5-carboxamide] | < 2000
CC(C)[C@H](CO)NC(=O)Cc1cn2c(C(=O)NCC34CC5CC(CC(C5)C3)C4)cccc2n1 [Compound 32, N-(adamantan-1-ylmethyl)-2-(2-{[(1R)-1-(hydroxymethyl)-2-methylpropyl]amino}-2-oxoethyl)imidazo[1,2-a]pyridine-5-carboxamide] | < 2000
CC(=O)NC1CCN(C(=O)Cc2cn3c(C(=O)NCC45CC6CC(CC(C6)C4)C5)cccc3n2)C1 (stereo not drawn) [Compound 170, 2-[2-(3-acetamidopyrrolidin-1-yl)-2-oxoethyl]-N-(adamantan-1-ylmethyl)imidazo[1,2-a]pyridine-5-carboxamide] | < 2000

same assay, conditions: fluorescence response of cells exposed to 80 μM 2′(3′)-O-(4-benzoyl-benzoyl)adenosine 5′-triphosphate; Example 4A; read-out: IC50

SMILES | IC50 [nM]
CCCCCN(CCO)C(=O)c1cn2c(NC(=O)CC34CC5CC(CC(C5)C3)C4)cccc2n1 [Compound 410, 5-[(adamantan-1-ylacetyl)amino]-N-(2-hydroxyethyl)-N-pentylimidazo[1,2-a]pyridine-2-carboxamide] | < 2000
CCCN(C)C(=O)c1cn2c(C(=O)NCC(CC(C)C)c3ccccc3)cccc2n1 (stereo not drawn) [Compound 262, 2-N-methyl-5-N-(4-methyl-2-phenylpentyl)-2-N-propylimidazo[1,2-a]pyridine-2,5-dicarboxamide] | < 2000
CN(C)C(=O)NCCc1cn2c(C(=O)NCC34CC5CC(CC(C5)C3)C4)cccc2n1 [Compound 268, N-(adamantan-1-ylmethyl)-2-{2-[(dimethylcarbamoyl)amino]ethyl} imidazo[1,2-a] pyridine-5-carboxamide] | < 2000
